Data reported in patent US6372737B1 (priority 1996, dated 2002).

Key:
Assay type in all cases: in vivo
[1] = test system: Erysiphe graminis f.sp. tritici; assay: Erysiphe test (wheat)/curative; details: curative, 7 days after inoculation
Experimental: (§1) Solvent: 25 parts by weight of N,N-dimethylacetamide
(§2) Emulsifier: 0.6 part by weight of alkylaryl polyglycol ether
(§3) To produce a suitable preparation of active compound, 1 part by weight of active compound or active compound combination is mixed with the stated amounts of solvent and emulsifier, and the concentrate is diluted with water to the desired concentration.
To test for curative activity, young plants are dusted with spores of Erysiphe graminis f.sp. tritici. 48 hours after the inoculation, the plants are sprayed with the preparation of active compound at the stated application rate.
(§4) The plants are placed in a greenhouse at a temperature of about 20° C. and a relative atmospheric humidity of about 80%, in order to promote the development of mildew pustules.
(§5) Evaluation is carried out 7 days after the inoculation. 0% means an efficacy which corresponds to that of the control, whereas an efficacy of 100% means that no infection is observed.

Botrytis cinerea = assay: Botrytis test (beans)/protective; details: 48 h, application rate 50 g/ha, protective, two days after inoculation, read-out: % efficacy
Experimental: To test for protective activity, young plants are sprayed with the commercial active compound preparation at the stated application rate. After the spray coating has dried on, 2 small pieces of agar covered with Botrytis cinerea are placed on each leaf. The inoculated plants are placed in a darkened chamber at about 20° C. and 100% relative atmospheric humidity.
Two days after the inoculation, the size of the infected spots on the leaves is evaluated. 0% means an efficacy corresponding to that of the control, and an efficacy of 100% means that no infection is observed.

Sphaerotheca fuliginea = assay: Sphaerotheca test (cucumber)/protective; details: Podosphaera fuliginea, 240 h, application rate 2.5 g/ha, protective, 10 days after inoculation, read-out: % efficacy
Experimental: To test for protective activity, young plants are sprayed with the commercial active compound preparation at the stated application rate. After the spray coating has dried on, the plants are inoculated with an aqueous spore suspension of Sphaerotheca fuliginea. The plants then remain in a greenhouse at about 23° C. and about 70% relative atmospheric humidity.
Evaluation is carried out 10 days after the inoculation. 0% means an efficacy corresponding to that of the control, and an efficacy of 100% means that no infection is observed.

Fusarium nivale = Fusarium nivale test (triticale)/seed treatment; details: dry seed dressing, about 3 weeks after sowing
Experimental: About 3 weeks after sowing, the plants are evaluated for symptoms of snow mould.

Pyrenophora teres = Pyrenophora teres test (barley)/curative; details: application rate 6.25 g/ha, curative, 7 days after inoculation
Experimental: as §1, §2, §3
(§6) To test for curative activity, young plants are sprayed with a conidia suspension of Pyrenophora teres. The plants remain in an incubation cabin at 20° C. and 100% relative atmospheric humidity for 48 hours. The plants are subsequently sprayed with the preparation of active compound at the stated application rate.
The plants are placed in a greenhouse at a temperature of about 20° C. and a relative atmospheric humidity of about 80%.
as §5

Leptosphaeria nodorum [2] = assay: Leptosphaeria nodorum test (wheat)/protective; details: Parastagonospora nodorum, 240 h, application rate 6.25 g/ha, protective, 10 days after inoculation, read-out: Efficacy in %
Experimental: as §1, §2, §3
(§7) To test for protective activity, young plants are sprayed with the preparation of active compound at the stated application rate. After the spray coating has dried on, the plants are sprayed with a spore suspension of Leptosphaeria nodorum. The plants remain in an incubation cabin at 20EC and 100% relative atmospheric humidity for 48 hours.
The plants are placed in a greenhouse at a temperature of about 15° C. and a relative atmospheric humidity of 80%.
(§8) Evaluation is carried out 10 days after the inoculation. 0% means an efficacy which corresponds to that of the control, whereas an efficacy of 100% means that no infection is observed.

Phytophthora infestans = assay: whole plant or invertebrate; details: Phytophthora infestans, in Solanum lycopersicum, 72 h, read-out: % efficacy
Puccinia recondita [3] = assay: Puccinia test (wheat)/curative; details: application rate 6.25 g/ha, curative, 10 days after inoculation
Experimental: as §1, §2, §3
as §6, with “Puccinia recondita.” for “Pyrenophora teres.”
The plants are placed in a greenhouse at a temperature of about 20° C. and a relative atmospheric humidity of about 80%, in order to promote the development of rust pustules.
as §8

Rhizoctonia solani = Rhizoctonia solani test (cotton)/seed treatment; details: application rate 75 mg/kg of seed, dry seed dressing, after 8 days
Experimental: The active compounds are applied as dry seed dressing. This is prepared by extending the respective active compound with ground mineral to give a finely pulverulent mixture which ensures uniform distribution on the seed surface.
To dress the seed, the infected seed together with the seed dressing is shaken for 3 minutes in a sealed glass flask.
2×50 corns of seed are sown at a depth of 2 cm into standard soil which is infected with Rhizoctonia solani, and the seeds are cultivated in a greenhouse at a temperature of about 22° C. in seed trays which receive a light regimen of 15 hours per day.
Evaluation is carried out after 8 days. 0% means an efficacy which corresponds to that of the untreated control, while an efficacy of 100% means that no disease is observed.

[4] = test system: Erysiphe graminis fsp. tritici; assay: Erysiphe test (wheat)/protective; details: protective, 7 days after inoculation
Experimental: as §1, §2, §3
To test for protective activity, young plants are sprayed with the preparation of active compound at the stated application rate.
After the spray coating has dried on, the plants are dusted with spores of Erysiphe graminis fsp. tritici.
as §4, §5

Puccinia recondita [5] = assay: Puccinia test (wheat)/protective; details: Puccinia recondita, 240 h, application rate 6.25 g/ha, protective, 10 days after inoculation, read-out: Efficacy in %
Experimental: as §1, §2, §3
as §7, with “conidia” for “spore”, “Puccinia recondita.” for “Leptosphaeria nodorum.”, “20° C.” for “20EC”
The plants are then placed in a greenhouse at a temperature of about 20° C. and a relative atmospheric humidity of 80%, in order to promote the development of rust pustules.
as §8

Leptosphaeria nodorum [6] = assay: Leptosphaeria nodorum test (wheat)/curative; details: curative, 10 days after inoculation
Experimental: as §1, §2, §3
as §6, with “Leptosphaeria nodorum.” for “Pyrenophora teres.”, “hours and” for “hours. The plants”, “then” for “subsequently”
The plants are placed in a greenhouse at a temperature of about 15° C. and a relative atmospheric humidity of about 80%.
as §8

[7] = test system: Erysiphe graminis f.sp. hordei; assay: Erysiphe test (barley)/curative; details: curative, 7 days after inoculation
Experimental: as §1, §2, §3
To test for curative activity, young plants are dusted with spores of Erysiphe graminis f.sp. hordei. 48 hours after the inoculation, the plants are sprayed with the preparation of active compound at the stated application rate.
as §4, §5

For `CON=C(C1=NOCCO1)c1ccccc1Oc1ncnc(Oc2ccccc2Cl)c1F` [(I)], the Efficacy in % ([1]; application rate 6.25 g/ha) was 0%, the Efficacy in % ([1]; application rate 25 g/ha) was 33% and the Emax at 50 g/ha (Botrytis cinerea) was 15%. It also gave an Emax at 2.5 g/ha (Sphaerotheca fuliginea) of 22%, an Efficacy in % (Fusarium nivale; application rate 25 mg/kg of seed) of 89% and an Efficacy in % (Fusarium nivale; application rate 75 mg/kg of seed) of 93%. It also gave an Efficacy in % (Pyrenophora teres) of 0%, a pest or weed control at 6.25 g/ha (Leptosphaeria nodorum [2]) of 25% and an Emax at 0.5 g/ha (Phytophthora infestans) of 9%. It also gave an Emax at 1 g/ha (Phytophthora infestans) of 20%, an Emax at 5 g/ha (Phytophthora infestans) of 45% and an Efficacy in % (Puccinia recondita [3]) of 67%. It also gave an Efficacy in % (Rhizoctonia solani) of 16%, an Efficacy in % ([4]; application rate 6.25 g/ha) of 0% and an Efficacy in % ([4]; application rate 12.5 g/ha) of 29%. It also gave an Efficacy in % ([4]; application rate 25 g/ha) of 79%, a pest or weed control at 6.25 g/ha (Puccinia recondita [5]) of 81% and an Efficacy in % (Leptosphaeria nodorum [6]; application rate 6.25 g/ha) of 62%. It also gave an Efficacy in % (Leptosphaeria nodorum [6]; application rate 12.5 g/ha) of 62%, an Efficacy in % ([7]; application rate 6.25 g/ha) of 0% and an Efficacy in % ([7]; application rate 12.5 g/ha) of 33%. It also gave an Efficacy in % ([7]; application rate 25 g/ha) of 75%.
